Data from patent US20040106545A1, “Compounds and methods for modulating cell adhesion” (priority 1996, published 2004).
Entries after “also recorded” stand apart in the source; their conditions may differ. Read-outs that look alike come from different tables or passages of the source. Positions of bridges follow the written chain, without caps; N, C: chain ends. Residues, ends and D or L forms follow the SMILES beside them.

Tests used:
MDA-MB231 [1] = experiment: Cytotoxicity, MTT assay, MDA-MB231; type: cell-based, human
In short: (§1)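 Cytotoxicity of N-Ac-CHAVC-NH2 and the control peptide N-Ac-CHGVC-NH2 was assessed by MTT reduction in human endothelial, fibroblast and cancer cell lines at concentrations up to 100 μM. Proliferation was measured separately by ^3H-thymidine incorporation over the same concentration range.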

HMVEC = type: cell-based, human; conditions: 3 h
In short: as §1

PC-3 [2] = type: cell-based, human; conditions: 3 h
In short: as §1

MDA-MB231 [3] = type: cell-based, human; conditions: 3 h
In short: as §1

WI-38 = type: cell-based, human; conditions: 3 h
In short: as §1

IAFp2 = type: cell-based, human; conditions: 3 h
In short: as §1

HUVEC = type: cell-based, human; conditions: 3 h
In short: as §1

PC-3 [4] = experiment: Cytotoxicity, MTT assay, PC-3; type: cell-based, human
In short: as §1

[5] = tested on: Bovine pulmonary artery endothelial cells; experiment: Disruption of bovine endothelial cell adhesion; type: cell-based; conditions: 500 μg/ml, 30 minutes
Protocol: For use within one such assay, bovine pulmonary artery endothelial cells may be harvested by sterile ablation and digestion in 0.1% collagenase (type II; Worthington Enzymes, Freehold, N.J.). Cells may be maintained in Dulbecco's minimum essential medium supplemented with 10% fetal calf serum and 1% antibiotic-antimycotic at 37° C. in 7% CO2 in air. Cultures may be passaged weekly in trypsin-EDTA and seeded onto tissue culture plastic at 20,000 cells/cm^2. Endothelial cultures may be used at 1 week in culture, which is approximately 3 days after culture confluency is established. The cells may be seeded onto coverslips and treated (e.g., for 30 minutes) with modulating agent or a control compound at, for example, 500 μg/ml and then fixed with 1% paraformaldehyde. As noted above, disruption of cell adhesion may be determined visually within 24 hours, by observing retraction of the cells from one another. This assay evaluates the effect of a modulating agent on N-cadherin mediated cell adhesion.
Bovine pulmonary artery endothelial cells were harvested by sterile ablation and digestion in 0.1% collagenase (type II; Worthington Enzymes, Freehold, N.J.). Cells were maintained in Dulbecco's minimum essential medium (Clonetics, San Diego, Calif.) supplemented with 10% fetal calf serum (Atlantic Biologicals, Nor cross, Ga.) and 1% antibiotic-antimycotic at 37° C. in 7% CO2 in air. Cultures were passaged weekly in trypsin-EDTA (Gibco, Grand Island, N.Y.) and seeded onto tissue culture plastic at 20,000 cells/cm^2 for all experiments. Endothelial cultures were used at 1 week in culture, which is approximately 3 days after culture confluency was established. The cells used in all protocols were between 4th passage and 10th passage. The cells were seeded onto coverslips and treated 30 minutes with N—Ac-CHAVC-NH2 (SEQ ID NO:10) or N—Ac-CHGVC-NH2 (SEQ ID NO:11) at 500 μg/ml and then fixed with 1% paraformaldehyde.

N-cadherin [6] = biological target: T1, N-cadherin (Gallus gallus, UniProt P10288); experiment: Neurite outgrowth inhibition, rat neurons (Example 21); type: cell-based; conditions: read-out: % Inhibition of neurite outgrowth; 250 μg/mL
T1 construct: expressed in transfected cells; host or cells: 3T3 fibroblasts (monolayer)
T1 sequence (P10288 165-912): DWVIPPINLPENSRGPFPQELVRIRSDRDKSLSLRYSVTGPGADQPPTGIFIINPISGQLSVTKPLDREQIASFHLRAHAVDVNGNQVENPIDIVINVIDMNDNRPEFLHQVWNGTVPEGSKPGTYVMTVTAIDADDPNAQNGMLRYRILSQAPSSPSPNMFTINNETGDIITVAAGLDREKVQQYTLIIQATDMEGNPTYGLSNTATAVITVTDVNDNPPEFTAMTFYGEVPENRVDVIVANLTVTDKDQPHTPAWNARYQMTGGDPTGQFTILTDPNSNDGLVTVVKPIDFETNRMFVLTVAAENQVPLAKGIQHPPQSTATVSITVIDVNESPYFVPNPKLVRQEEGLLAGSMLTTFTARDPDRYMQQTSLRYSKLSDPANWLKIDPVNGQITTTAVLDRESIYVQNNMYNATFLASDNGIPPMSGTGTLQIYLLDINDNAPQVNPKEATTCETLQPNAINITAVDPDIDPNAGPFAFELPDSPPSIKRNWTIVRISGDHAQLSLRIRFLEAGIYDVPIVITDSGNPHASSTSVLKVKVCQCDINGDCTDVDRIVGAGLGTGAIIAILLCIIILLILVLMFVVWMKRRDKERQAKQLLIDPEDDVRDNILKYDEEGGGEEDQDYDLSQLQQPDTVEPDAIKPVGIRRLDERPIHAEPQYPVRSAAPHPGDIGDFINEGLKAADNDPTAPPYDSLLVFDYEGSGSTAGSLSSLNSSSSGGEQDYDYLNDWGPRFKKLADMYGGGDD

Solubility in RPMI = type: physicochemical; conditions: 1 mM
[7] = tested on: Human saphenous vein vascular smooth muscle cells; experiment: Vascular smooth muscle cell apoptosis at migrating wound edge, in situ end labeling; type: cell-based; conditions: 0.2 mg/ml, 24 hours after wounding, n=5, p=0.1
Protocol: Human saphenous vein vascular smooth muscle cells were explanted from surplus segments of vein from patients undergoing coronary artery bypass surgery. Cells were maintained in Dulbecco's modified essential medium supplemented with […], 2 mmol/L L-glutamine and 10% fetal calf serum and were grown to confluence on glass coverslips. The cell layer was then subjected to scrape-wounding by drawing a fine cell scraper across the coverslip. Proliferation of the vascular smooth muscle cells was inhibited by addition of 2 mM hydroxyurea to the culture media. Vascular smooth muscle cells that are treated in this manner respond to the wounding of the confluent monolayer by migrating into the wound (Hammerle et al (1991) Vasa 20, 207-215). The percentage of apoptotic cells in the migrating edge (outermost 100 μm from the wound) was assessed by in situ end labeling at 24 hours after wounding (as in George et al (2001) Gene Therapy 8 668-676).

L1 = L1 (Homo sapiens, UniProt P32004); experiment: Neurite outgrowth of rat cerebellar neurons on L1 expressing 3T3 monolayers (Example 15); type: cell-based; design: expressed in transfected cells; rat cerebellar neurons on top
Protocol: Cell culture and neurite outgrowth assays. Co-cultures of cerebellar neurons on monolayers of control 3T3 cells and monolayers of transfected 3T3 cells that express physiological levels of chick N-cadherin or human L1 were established as previously described (Williams et al., Neuron 13:583-594, 1994). In brief, 80,000 3T3 cells (control and transfected) were plated into individual chambers of an eight-chamber tissue culture slide coated with polylysine and fibronectin and cultured in DMEM/10% FCS. After 24 hours, when confluent monolayers had formed, the medium was removed and 3000 cerebellar neurons isolated from post-natal day 2-3 rats were plated into each well in SATO media (Doherty et al., Nature 343:464-466, 1990) supplemented with 2% FCS. All of the test peptides were added immediately before the neurons as a 2× stock prepared in SATO/2% FCS. The co-cultures were maintained for 16-18 hours, at which time they were fixed and immunostained for GAP-43 which is present only in the neurons and delineates the neuritic processes. The mean length of the longest neurite per cell was measured for 150-200 neurons sampled in replicate cultures as previously described (Williams et al., Neuron 13:583-594, 1994). […] Dose-response curves were evaluated and the EC50 values determined.
Other cell adhesion molecules, such as L1, can stimulate neurite outgrowth, and this response shares the same downstream signaling steps as the N-cadherin response. […] As previously reported, L1 stimulated neurite outgrowth from cerebellar neurons.

[8] = tested on: Madin Darby canine kidney (MDCK) cells; type: cell-based
Protocol: Yet another assay evaluates the effect of a modulating agent on the electrical resistance across a monolayer of cells. For example, Madin Darby canine kidney (MDCK) cells can be exposed to the modulating agent dissolved in medium (e.g., at a final concentration of 0.5 mg/ml for a period of 24 hours). The effect on electrical resistance can be measured using standard techniques. This assay evaluates the effect of a modulating agent on tight junction formation in epithelial cells. In general, the presence of 500 μg/mL modulating agent should result in a statistically significant decrease in electrical resistance after 24 hours.
Madin Darby canine kidney (MDCK) cells were plated in Millicells (Millipore, Bedford, Mass.), at a density of 300,000 cells per Millicell, and cultured in Dulbecco's Modified Eagle Medium (DMEM; Sigma, St. Louis, Mo.) containing 5% fetal calf serum (Sigma, St. Louis, Mo.) until monolayers formed. Monolayers were exposed to the modulating agent dissolved in medium. The electrical resistance was measured using the EVOM device (World Precision Instruments, Sarasota, Fla.). At the time of measurement, fresh medium, with or without the modulating agent, may be added to the Millicells.

chick N-cadherin = biological target: T2, chick N-cadherin (Gallus gallus, UniProt P10288); experiment: Neurite outgrowth of rat cerebellar neurons on N-cadherin expressing 3T3 monolayers (Example 15); type: cell-based; conditions: Tables 8 and 9
T2 construct: expressed in transfected cells; host or cells: 3T3 fibroblasts (monolayer); rat post-natal day 2-3 cerebellar neurons plated on top
T2 sequence (P10288 165-912): T1 sequence (P10288 165-912)

N-cadherin [9] = biological target: T3, N-cadherin (Homo sapiens, UniProt P19022); conditions: cited from earlier work
T3 sequence (P19022 160-906): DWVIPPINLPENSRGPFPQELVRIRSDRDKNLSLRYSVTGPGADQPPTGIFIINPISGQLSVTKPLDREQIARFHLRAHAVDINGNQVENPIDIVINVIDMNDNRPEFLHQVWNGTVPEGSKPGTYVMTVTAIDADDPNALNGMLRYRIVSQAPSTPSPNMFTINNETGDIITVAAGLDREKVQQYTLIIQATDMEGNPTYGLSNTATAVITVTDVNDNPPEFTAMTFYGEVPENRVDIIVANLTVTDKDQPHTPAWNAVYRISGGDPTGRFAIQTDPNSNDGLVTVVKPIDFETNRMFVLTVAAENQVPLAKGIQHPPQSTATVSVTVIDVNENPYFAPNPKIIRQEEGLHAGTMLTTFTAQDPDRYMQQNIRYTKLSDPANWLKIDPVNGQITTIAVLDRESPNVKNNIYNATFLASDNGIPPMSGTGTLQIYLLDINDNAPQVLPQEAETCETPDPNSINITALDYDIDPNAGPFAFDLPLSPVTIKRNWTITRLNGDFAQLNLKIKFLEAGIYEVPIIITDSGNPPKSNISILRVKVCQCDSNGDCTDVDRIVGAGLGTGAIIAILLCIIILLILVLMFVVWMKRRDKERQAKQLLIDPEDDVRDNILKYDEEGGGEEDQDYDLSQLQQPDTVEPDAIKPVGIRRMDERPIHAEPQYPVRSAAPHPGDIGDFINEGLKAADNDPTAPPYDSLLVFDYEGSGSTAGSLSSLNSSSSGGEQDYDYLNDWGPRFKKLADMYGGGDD

L1, sequence (P32004 20-1257): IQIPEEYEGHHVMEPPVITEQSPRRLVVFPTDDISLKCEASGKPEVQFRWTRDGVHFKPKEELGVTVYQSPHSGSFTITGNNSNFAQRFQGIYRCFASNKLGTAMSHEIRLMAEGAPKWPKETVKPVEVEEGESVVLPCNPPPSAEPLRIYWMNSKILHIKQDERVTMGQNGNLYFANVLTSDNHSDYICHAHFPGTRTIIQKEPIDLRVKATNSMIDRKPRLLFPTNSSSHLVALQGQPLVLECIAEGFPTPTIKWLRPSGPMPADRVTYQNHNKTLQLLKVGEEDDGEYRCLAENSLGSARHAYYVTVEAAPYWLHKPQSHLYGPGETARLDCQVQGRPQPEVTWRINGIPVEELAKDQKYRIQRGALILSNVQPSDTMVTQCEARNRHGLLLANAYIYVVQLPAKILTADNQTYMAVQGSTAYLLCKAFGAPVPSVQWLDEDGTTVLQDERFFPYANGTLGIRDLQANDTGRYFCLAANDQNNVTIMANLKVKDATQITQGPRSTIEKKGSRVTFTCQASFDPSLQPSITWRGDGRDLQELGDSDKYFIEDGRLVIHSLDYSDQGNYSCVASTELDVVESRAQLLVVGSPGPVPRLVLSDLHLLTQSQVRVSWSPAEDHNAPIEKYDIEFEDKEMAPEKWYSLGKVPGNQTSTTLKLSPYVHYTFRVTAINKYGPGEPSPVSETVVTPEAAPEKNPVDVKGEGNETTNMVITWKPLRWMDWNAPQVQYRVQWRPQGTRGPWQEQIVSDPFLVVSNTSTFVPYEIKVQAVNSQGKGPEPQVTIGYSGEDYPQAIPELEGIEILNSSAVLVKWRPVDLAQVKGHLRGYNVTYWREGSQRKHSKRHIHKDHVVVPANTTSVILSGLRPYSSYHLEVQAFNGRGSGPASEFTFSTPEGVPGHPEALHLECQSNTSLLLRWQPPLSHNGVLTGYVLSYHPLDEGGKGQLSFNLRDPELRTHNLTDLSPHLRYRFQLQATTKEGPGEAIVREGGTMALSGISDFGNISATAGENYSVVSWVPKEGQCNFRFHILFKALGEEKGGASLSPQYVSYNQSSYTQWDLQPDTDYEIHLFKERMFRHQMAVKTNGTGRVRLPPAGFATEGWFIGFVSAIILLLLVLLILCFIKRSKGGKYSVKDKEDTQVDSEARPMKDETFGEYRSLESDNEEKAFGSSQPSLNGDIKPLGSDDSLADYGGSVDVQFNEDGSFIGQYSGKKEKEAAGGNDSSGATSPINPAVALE

| Compound | IC50 (MDA-MB231 [1]) [µM] | IC50 (HMVEC) [µM] | IC50 (PC-3 [2]) [µM] | IC50 (MDA-MB231 [3]) [µM] | IC50 (WI-38) [µM] | IC50 (IAFp2) [µM] | IC50 (HUVEC) [µM] | IC50 (PC-3 [4]) [µM] | effect on endothelial cell monolayer / morphology [5] | inhibition at 250 µg/mL (N-cadherin [6]) [%] | solubility in RPMI (Solubility in RPMI) | increase in apoptosis at wound edge [7] [fold] | inhibition at 125 µg/mL (L1; 125 μg/ml, read-out: % Inhibition of L1 Response) [%] | effect on L1 stimulated neurite outgrowth (in words) (L1; concentrations that inhibited the N-cadherin response (100 μg/mL in FIG. 24)) | effect on electrical resistance across MDCK cells (in words) [8] | inhibitory activity on N-cadherin dependent neurite outgrowth, structure/activity statements (chick N-cadherin) | stimulation of neurite outgrowth (N-cadherin [9]) |
| --- | --- | --- | --- | --- | --- | --- | --- | --- | --- | --- | --- | --- | --- | --- | --- | --- | --- |
| CC[C@H](C)[C@@H]1NC(=O)[C@H](CC(=O)O)NC(=O)[C@H](C(C)C)NC(=O)CNC(=O)[C@H](Cc2c[nH]cn2)NC(=O)[C@H](C)NC(=O)[C@@H](NC(C)=O)CSSC[C@@H](C(N)=O)NC1=O (Ac-CAHGVDIC-NH2; disulfide 1-8) | > 100 | > 100 | > 100 | > 100 | > 100 | > 100 | > 100 | > 100 | neither of the cyclic peptides show activity | 0 | – | – | – | – | – | – | – |
| CC(=O)N[C@H]1CSSC[C@@H](C(N)=O)NC(=O)[C@H](CO)NC(=O)[C@H](CO)NC(=O)[C@H](C(C)C)NC(=O)[C@H](C)NC(=O)[C@H](Cc2c[nH]cn2)NC(=O)[C@H](CO)NC1=O (Ac-CSHAVSSC-NH2; disulfide 1-8 (inferred)) | > 100 | 70 | > 100 | 76 | > 100 | > 100 | 69 | > 100 | – | 0 | *Incompletely soluble in RPMI at 1 mM | – | – | – | – | – | – |
| CC[C@H](C)[C@@H]1NC(=O)[C@H](CC(=O)O)NC(=O)[C@H](C(C)C)NC(=O)[C@H](C)NC(=O)[C@H](Cc2c[nH]cn2)NC(=O)[C@@H](NC(C)=O)CSSC[C@@H](C(N)=O)NC1=O [N—Ac—CHAVDIC—NH2] (Ac-CHAVDIC-NH2; disulfide 1-7) | – | – | – | – | – | – | – | – | – | – | – | 1.3 | 6 ± 4.7 | did not interfere with the ability of neurons to extend neurites over 3T3 cells expressing L1 | complete abrogation of E-cadherin specific activity | further increased activity; also recorded: potent inhibitors | – |
| CC(=O)N[C@H]1CSSC[C@@H](C(N)=O)NC(=O)[C@H](CO)NC(=O)[C@H](C(C)C)NC(=O)[C@H](C)NC(=O)[C@H](Cc2c[nH]cn2)NC1=O [N—Ac—CHAVSC—NH2, N-Ac-Cys-His-Ala-Val-Ser-Cys-NH2] (Ac-CHAVSC-NH2; disulfide 1-6 (inferred)) | > 100 | > 100 | > 100 | 52 | > 100 | > 100 | 57 | > 100 | – | 0 | *Incompletely soluble in RPMI at 1 mM | – | – | – | – | – | – |
| N—AC-CHAVDINGHAVDIC-NH2: cyclic peptide presenting two HAV motifs in an antiparallel fashion (Williams et al. 2002) (Ac-CHAVDINGHAVDIC-NH2; disulfide 1-14 (inferred)) | – | – | – | – | – | – | – | – | – | – | – | – | – | – | – | – | capable of stimulating neurite outgrowth |
